According to patent publication US20220054493A1, “INHIBITORS OF NGAL PROTEIN” (INSERM (INSTITUT NATIONAL DE LA SANTÉ ET DE LA RECHERCHE …, priority 2019, published 2022):

Experiments:
NGAL = biological target: T1, NGAL (Homo sapiens, UniProt P80188); assay: NGAL-induced Col 1 secretion in human cardiac fibroblasts (ELISA); assay type: cell-based; settings: FIGS. 1 and 2 panel B
T1 construct: purchased R&D Systems
Description: Cell Culture Human cardiac fibroblasts (primary culture) were obtained from Promocell and maintained in medium (Fibroblast Media 3). Cells were cultured according to the manufacturer's instructions and used between passages 5 and 7. Cells were stimulated with aldosterone (10^-8 M, Sigma) or recombinant hNGAL (500 ng/mL, R&D Systems) for 24 h for protein analysis. Mouse kidney fibroblasts (MKF), were isolated from Wild Type (WT) mice. Briefly, mice 7 to 8 weeks were sacrificed by cervical dislocation and kidneys were cleaned and rinsed in cold DPBS (Dulbecco's Phosphate-Buffered Saline). The renal cortex was minced and incubated in Dulbecco's modified eagle medium/Nutrient mixture F-12 (DMEM/F12, Sigma) containing 1 mg/mL collagenase A (Roche) during 25 minutes at 37° C. The digestion was inactivated by adding culture medium (DMEM/F12+10% FBS) then the cell suspension was passed through a 100-μm cell strainer. After centrifugation, the pellet (containing MKF) was diluted with culture medium then plated in 75 cm^2 culture flask. […]
NGAL, IL6 and collagen type I concentrations were measured in cardiac tissue and cell supernatants, respectively, by ELISA according to the manufacturer's instructions (R&D Systems).
The inhibitory activity of the compounds was evaluated on the NGAL-induced IL6 secretion (NGAL 10 ng/ml) in human cardiac fibroblasts. […]

[1] = system: Myocardial Infarction Model; assay: Profibrotic, IL6 and inflammatory target tissue content in the myocardial infarction model; assay type: in vivo, mice; settings: MI model, 100 mg/kg/day in food admix, three months
Description: Total protein aliquots of 20 μg were prepared from cardiac homogenates and electrophoresed on SDS polyacrylamide gels and transferred to Hybond-c Extra nitrocellulose membranes (Amersham Biosciences). Membranes were incubated with primary antibodies for: NGAL (Abcam; dilution 1:500), Collagen type III (Santa Cruz; dilution 1:500), a-SMA (Sigma; dilution 1:1000), CTGF Abcam; dilution 1:500), GDF-15 (Abcam; dilution 1:500), fibronectin (Millipore, 1:500), Galectin-3 (Thermo, 1:1000), Cardiotrophin-1 (Abcam, 1:500), osteopontin (Santa Cruz, 1:1000), cd3 (Abcam, 1:500), cd68 (Abcam, 1:500), cd80 (Santa Cruz, 1:500) and β-actin (Sigma; dilution 1:1000) as a loading control. […] After densitometric analyses, optical density values were expressed as arbitrary units. Results are expressed as an n-fold increase over the values of the control group in densitometric arbitrary units. NGAL, IL6 and collagen type I concentrations were measured in cardiac tissue and cell supernatants, respectively, by ELISA according to the manufacturer's instructions (R&D Systems).

[2] = Binding to human plasma protein; assay type: in vitro ADME; settings: human, human plasma protein; read-out: hPPB (converted)
Description: (§1) Two specific toxicity assays have been performed to assess hepatoxicity and cardiotoxicity. Hepatotoxicity was evaluated in isolated hepatocytes from swiss mice and determined by the MTT colorimetric assay. Cardiotoxicity was evaluated using the commercially available Predictor hERG fluorescence polarization kit (Thermo Fisher Scientific). Several ADME assays have been carried out on the compounds generated throughout the project. The following experiments were undertaken: Stability in human microsomes, binding to human plasma protein, and CYP3A4 inhibition assay (Vivid CYP3A4 assay, Thermo Fisher Scientific). Physico-chemical properties were also assessed such as aqueous solubility and chemical stability.

human plasma protein = assay: Binding to human plasma protein; assay type: in vitro ADME
Description: as §1

CYP3A4 = biological target: T2, CYP3A4 (Homo sapiens, UniProt P08684); assay: CYP3A4 inhibition assay (Vivid CYP3A4 assay); assay type: in vitro ADME
T2 construct: purchased Thermo Fisher Scientific
T2 sequence (P08684 whole entry): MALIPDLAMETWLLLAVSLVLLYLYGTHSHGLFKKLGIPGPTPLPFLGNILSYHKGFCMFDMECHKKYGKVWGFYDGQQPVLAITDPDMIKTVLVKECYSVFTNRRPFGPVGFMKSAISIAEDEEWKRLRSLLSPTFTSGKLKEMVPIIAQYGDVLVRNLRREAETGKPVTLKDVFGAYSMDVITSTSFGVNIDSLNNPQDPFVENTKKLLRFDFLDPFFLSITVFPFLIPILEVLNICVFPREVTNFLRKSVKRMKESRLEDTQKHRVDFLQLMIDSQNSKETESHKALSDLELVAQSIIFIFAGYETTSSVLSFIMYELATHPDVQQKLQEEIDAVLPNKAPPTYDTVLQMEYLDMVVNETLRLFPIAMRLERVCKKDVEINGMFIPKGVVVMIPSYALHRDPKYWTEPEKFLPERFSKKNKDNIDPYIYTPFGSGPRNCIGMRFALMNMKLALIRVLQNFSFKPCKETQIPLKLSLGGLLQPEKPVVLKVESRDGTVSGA
Description: as §1

Chemical stability = assay type: physicochemical
Description: as §1

CKD Mouse Model [3] = assay: Blood pressure in the CKD mouse model (subtotal nephrectomy); assay type: in vivo, mice; settings: two months administration; FIG. 13
Description: Systolic BP was measured by tail-cuff plethysmography in trained conscious mice at weeks 8-10 using a BP2000 Visitech model. BP was measured every day in the same room at the same hour for 5 consecutive days. The BP measurements (expressed as mmHg) presented are the averages of the last 3 days
(§2) Chronic kidney disease (CKD) was induced by subtotal nephrectomy (Nx) in eight-weeks-old FVB male mice (25-26 g). All surgeries were performed under ketamine/xylazine anaesthesia. Briefly, the left kidney was exposed, and the upper and lower poles were tied with a poly-glycolic acid suture line. The peritoneum and skin were then sutured, and the animals were returned to their individual cages. After one week of recovery, the second kidney was removed. Removal of the second kidney represents TO. Sham mice were subjected to the same surgical procedures but neither renal poles nor the right kidney were removed. Mice were monitored for any sign of distress, and those observed to be experiencing severe, unrelievable pain were euthanized. Renal failure was assessed by the measure of plasma creatinine and urea with an automatic analyser (Konelab 20i; Thermo Fisher Scientific, Vernon Hills, Ill.) at weeks 4 and 10 post-Nx.

CKD Mouse Model [4] = assay: Renal fibrosis in the CKD mouse model (sirius red staining); assay type: in vivo, mice; settings: two months administration; FIG. 14 A-B
Description: as §2

T1 sequence (P80188 21-198): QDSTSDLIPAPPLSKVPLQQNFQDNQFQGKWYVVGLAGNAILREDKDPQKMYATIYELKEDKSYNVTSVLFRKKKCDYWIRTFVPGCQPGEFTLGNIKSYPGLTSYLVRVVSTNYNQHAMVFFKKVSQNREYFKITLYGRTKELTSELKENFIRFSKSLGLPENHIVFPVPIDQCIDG

Which “Col 1 secretion (NGAL-induced)” value (NGAL) does the source give for CC(=O)c1cccc(S(=O)(=O)NCc2ccccc2-n2cccn2)c1 [GPZ614741] here?
The value was “inhibited”.

What about the aSMA tissue content ([1]; FIG. 10 panel A) of the same compound?
Its aSMA tissue content is “significant prevention of up regulation”.

What about the GDF15 tissue content ([1]; FIG. 10 panel B) of the same compound?
The GDF15 tissue content was “significant prevention of up regulation”.

And the CTGF tissue content ([1]; FIG. 10 panel C)?
Its CTGF tissue content is “significant prevention of up regulation”.

And the Col1 tissue content ([1]; FIG. 10 panel D)?
The Col1 tissue content was “significant prevention of up regulation”.

And the IL6 tissue content ([1]; FIG. 11 panel A)?
Its IL6 tissue content is “significant prevention of up regulation”.

And the CD68 tissue content ([1]; FIG. 12 panel C)?
The CD68 tissue content was “significant prevention of up regulation”.

And the “CD 80 tissue content” value ([1]; FIG. 12 panel D)?
The value was “significant prevention of up regulation”.

What about the CD86 tissue content ([1]; FIG. 12 panel E) of the same compound?
Its CD86 tissue content is “significant prevention of up regulation”.

What about the CD3 tissue content ([1]; FIG. 12 panels A, B) of the same compound?
Its CD3 tissue content is “significant prevention of up regulation”.

And the fraction unbound [2]?
The fraction unbound was 0.288.

And the “PPB (binding to plasma proteins)” value (human plasma protein)?
Its value is “low”.

And the “processing by CYP3A4” value (CYP3A4)?
Its value is “partially processed”.

And the Activity (CYP3A4; human, recombinant CYP3A4 (Vivid CYP3A4 assay kit), 100 = no inhibition, read-out: CyP 3A4 Inhibition % (100 = no inhibition))?
Its Activity is 72.2 ± 1.94%.

What about the “Chemical Stability” value (Chemical stability) of the same compound?
Its value is 103%.

What about the “stability to acidic pH / digestive content” value (Chemical stability) of the same compound?
The value was “fully stable”.

What about the “increase of blood pressure induced by CKD” value (CKD Mouse Model [3]) of the same compound?
The value was “prevented the increase”.

And the “interstitial fibrosis associated to CKD (sirius red staining)” value (CKD Mouse Model [4])?
Its value is “strong antifibrotic effect”.
